# Laboratory results reported in patent US8759013B2, “Dual-target biosensor cell assays” (Corning Incorporated, priority 2008, dated 2014).
# Biological target: T1, protease activated receptor subtype 1, PAR1 (Homo sapiens, UniProt P25116)
# T1 construct: A431 cells endogenously express both PAR1 and β2AR; endogenous in cells; host or cells: A431 (human epidermoid carcinoma)
# T1 sequence (P25116 22-425): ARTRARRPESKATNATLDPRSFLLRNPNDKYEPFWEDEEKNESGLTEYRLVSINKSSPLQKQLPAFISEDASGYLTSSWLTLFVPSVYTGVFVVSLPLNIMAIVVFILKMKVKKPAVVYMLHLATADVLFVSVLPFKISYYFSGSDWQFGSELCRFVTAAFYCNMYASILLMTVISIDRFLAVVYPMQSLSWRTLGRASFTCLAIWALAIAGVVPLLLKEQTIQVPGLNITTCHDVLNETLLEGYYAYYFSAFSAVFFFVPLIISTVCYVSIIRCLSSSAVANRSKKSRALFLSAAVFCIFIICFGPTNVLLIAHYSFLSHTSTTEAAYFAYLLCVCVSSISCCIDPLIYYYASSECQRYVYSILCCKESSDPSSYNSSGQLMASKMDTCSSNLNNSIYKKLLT
# Experiment: RWG biosensor DMR assay, SFLLR-amide stimulation of A431 cells
# Format: cell-based
# Details: 1 micromolar
# Excerpt: Corning® Epic® wavelength interrogation system was used.
# It is widely believed that GPCR signaling proceeds through a series of highly regulated spatial and temporal events besides the production and regulations of second messengers such as Ca^2+ and cAMP. […] The label-free optical biosensors enable the measurement of an integrated cellular response relating to ligand-induced dynamic mass redistribution in cells within the detection zone of the biosensor, offering a novel readout for receptor biology and ligand pharmacology.
# FIG. 2 provide examples of RWG biosensor-based cell assays against two classes of G protein-coupled receptors. […] A431 cells endogenously express both PAR1 and β2AR. […] This is consistent with the known signaling pathways mediated through each receptor individually, i.e., PAR1 activation leads to a Gq pathway, while β2AR activation leads to a Gs pathway. […] In FIGS. 2b, 2c and 2d, the error bar at each time point was also included. One possible explanation is that distinct classes of GPCRs can mediate signaling through distinct routes (e.g., “channeling” or “tunneling”), and the cells can respond synergistically to co-stimulation with two agonists targeting two different receptors.
substance,measurement,value
SFLLR-amide,type of DMR signal induced,Gq-type DMR signal
